≈ marks a conversion by molar mass, not a printed value. Where a SMILES comes first, the peptide text is derived from it. Bridges are numbered along the chain shown (N, C = ends). The star is where a group is joined. Acm = CC(=O)NC*
Key:
B. coagulans ATCC 7050 = conditions: ATCC 7050, 24 h
Experimental: (§1) Bacterial cultures were grown in Luria Bertani broth (Hi-media) by overnight incubation at 37°C with constant shaking. Microbial cultures having 10^6 CFU/ml were made from OD 0.6 culture. Respective peptide stock concentration (1mg/ml) were prepared in sterile water and diluted in LB broth to make concentrations ranging from 1–200 μg/ml. Bacterial culture (50 μl) was treated with 50 μl of individual peptide amide solution of various concentrations and incubated for 24 h at 37°C with constant shaking in a 96 well microtitre plate. […] The minimum inhibitory concentration (MIC) was taken as the dose at which 100% of growth inhibition was observed and was calculated from the graph. MIC was calculated from independent experiments performed in triplicate.

B. subtilis MTCC 14416 = conditions: MTCC 14416, 24 h
Experimental: as §1

S. aureus ATCC 9542 = conditions: ATCC 9542, 24 h
Experimental: as §1

E. coli MG 1655 = conditions: MG 1655, 24 h
Experimental: as §1

P. aeruginosa ATCC 27853 = conditions: ATCC 27853, 24 h
Experimental: as §1

[1] = test system: V. cholerae (clinical isolates); conditions: 24 h
Experimental: as §1

With CC[C@H](C)[C@@H]1NC(=O)[C@H](CCCCN)NC(=O)[C@@H](NC(=O)[C@H](CC(C)C)NC(=O)[C@@H](NC(=O)[C@H](CCC(N)=O)NC(=O)[C@@H]2CCCN2C(=O)[C@H](CC(C)C)NC(=O)[C@H](Cc2ccccc2)NC(=O)[C@H](CC(N)=O)NC(=O)[C@H](C)NC(=O)[C@H](C)NC(=O)[C@H](CC(C)C)NC(=O)CN)[C@@H](C)CC)CSSC[C@@H](C(N)=O)NC(=O)[C@H](CCCCN)NC(=O)[C@H](CCCNC(=N)N)NC(=O)[C@H](C)NC1=O [B1CTcu5-LIA] (H-GLAANFLPQILCKIARKC-NH2; disulfide 12-18) as the molecule, how does the MIC (B. coagulans ATCC 7050) read?
The MIC was 100 µg/mL (≈ 51.1 µM).

And the MIC (B. subtilis MTCC 14416)?
The MIC was 100 µg/mL (≈ 51.1 µM).

And the MIC (S. aureus ATCC 9542)?
The MIC was 50 µg/mL (≈ 25.6 µM).

What about the MIC (E. coli MG 1655) of the same molecule?
Its MIC is 100 µg/mL (≈ 51.1 µM).

And the MIC (P. aeruginosa ATCC 27853)?
The MIC was greater than 100 µg/mL.

And the MIC [1]?
Its MIC is 50 µg/mL (≈ 25.6 µM).

Which results are given for CC[C@H](C)[C@H](NC(=O)[C@H](CCCCN)NC(=O)[C@H](CSCNC(C)=O)NC(=O)[C@H](CC(C)C)NC(=O)[C@@H](NC(=O)[C@H](CCC(N)=O)NC(=O)[C@@H]1CCCN1C(=O)[C@H](CC(C)C)NC(=O)[C@H](Cc1ccccc1)NC(=O)[C@H](CC(N)=O)NC(=O)[C@H](C)NC(=O)[C@H](C)NC(=O)[C@H](CC(C)C)NC(=O)CNC(=O)[C@H](C)NC(=O)[C@@H](NC(=O)[C@@H](N)CC(C)C)[C@@H](C)CC)[C@@H](C)CC)C(=O)N[C@@H](C)C(=O)N[C@@H](CCCNC(=N)N)C(=O)N[C@@H](CCCCN)C(=O)N[C@@H](CS)C(N)=O [B1CTcu5C (Acm)] (H-LIAGLAANFLPQILC(Acm)KIARKC-NH2)?
MIC (B. coagulans ATCC 7050): 25 µg/mL (≈ 10.7 µM); MIC (B. subtilis MTCC 14416): 50 µg/mL (≈ 21.5 µM); MIC (S. aureus ATCC 9542): 50 µg/mL (≈ 21.5 µM); MIC (E. coli MG 1655): 12.5 µg/mL (≈ 5.37 µM); MIC (P. aeruginosa ATCC 27853): >100 µg/mL; MIC [1]: 50 µg/mL (≈ 21.5 µM)

Which MIC (B. coagulans ATCC 7050) does the source give for CC[C@H](C)[C@H](N)C(=O)N[C@@H](C)C(=O)NCC(=O)N[C@@H](CC(C)C)C(=O)N[C@@H](C)C(=O)N[C@@H](C)C(=O)N[C@@H](CC(N)=O)C(=O)N[C@@H](Cc1ccccc1)C(=O)N[C@@H](CC(C)C)C(=O)N1CCC[C@H]1C(=O)N[C@@H](CCC(N)=O)C(=O)N[C@H](C(=O)N[C@@H](CC(C)C)C(=O)N[C@H]1CSSC[C@@H](C(N)=O)NC(=O)[C@H](CCCCN)NC(=O)[C@H](CCCNC(=N)N)NC(=O)[C@H](C)NC(=O)[C@H]([C@@H](C)CC)NC(=O)[C@H](CCCCN)NC1=O)[C@@H](C)CC [B1CTcu5-L] (H-IAGLAANFLPQILCKIARKC-NH2; disulfide 14-20) here?
The MIC was 100 µg/mL (≈ 46.7 µM).

What about the MIC (B. subtilis MTCC 14416) of the same molecule?
The MIC was 100 µg/mL (≈ 46.7 µM).

And the MIC (S. aureus ATCC 9542)?
The MIC was 25 µg/mL (≈ 11.7 µM).

And the MIC (E. coli MG 1655)?
Its MIC is 50 µg/mL (≈ 23.4 µM).

What about the MIC (P. aeruginosa ATCC 27853) of the same molecule?
Its MIC is greater than 100 µg/mL.

And the MIC [1]?
Its MIC is 25 µg/mL (≈ 11.7 µM).

CC[C@H](C)[C@H](NC(=O)[C@H](CCCCN)NC(=O)[C@H](CS)NC(=O)[C@H](CC(C)C)NC(=O)[C@@H](NC(=O)[C@H](CCC(N)=O)NC(=O)[C@@H]1CCCN1C(=O)[C@H](CC(C)C)NC(=O)[C@H](Cc1ccccc1)NC(=O)[C@H](CC(N)=O)NC(=O)[C@H](C)NC(=O)[C@H](C)NC(=O)[C@H](CC(C)C)NC(=O)CNC(=O)[C@H](C)NC(=O)[C@@H](NC(=O)[C@@H](N)CC(C)C)[C@@H](C)CC)[C@@H](C)CC)C(=O)N[C@@H](C)C(=O)N[C@@H](CCCNC(=N)N)C(=O)N[C@@H](CCCCN)C(=O)N[C@@H](CS)C(N)=O [Linear B1CTcu5] (H-LIAGLAANFLPQILCKIARKC-NH2) was tested. Which MIC (B. coagulans ATCC 7050) did it give?
Its MIC is 12.5 µg/mL (≈ 5.54 µM).

What about the MIC (B. subtilis MTCC 14416) of the same molecule?
The MIC was 50 µg/mL (≈ 22.2 µM).

What about the MIC (S. aureus ATCC 9542) of the same molecule?
Its MIC is greater than 100 µg/mL.

And the MIC (E. coli MG 1655)?
The MIC was 25 µg/mL (≈ 11.1 µM).

And the MIC (P. aeruginosa ATCC 27853)?
The MIC was greater than 100 µg/mL.

And the MIC [1]?
Its MIC is 25 µg/mL (≈ 11.1 µM).

Which MIC (B. coagulans ATCC 7050) does the source give for CC[C@H](C)[C@@H]1NC(=O)[C@H](CCCCN)NC(=O)[C@@H](NC(=O)[C@H](CC(C)C)NC(=O)[C@@H](NC(=O)[C@H](CCC(N)=O)NC(=O)[C@@H]2CCCN2C(=O)[C@H](CC(C)C)NC(=O)[C@H](Cc2ccccc2)NC(=O)[C@H](CC(N)=O)NC(=O)[C@H](C)NC(=O)[C@H](C)NC(=O)[C@H](CC(C)C)NC(=O)CNC(=O)[C@H](C)N)[C@@H](C)CC)CSSC[C@@H](C(N)=O)NC(=O)[C@H](CCCCN)NC(=O)[C@H](CCCNC(=N)N)NC(=O)[C@H](C)NC1=O [B1CTcu5-LI] (H-AGLAANFLPQILCKIARKC-NH2; disulfide 13-19) here?
The MIC was 80 µg/mL (≈ 39.5 µM).

What about the MIC (S. aureus ATCC 9542) of the same molecule?
Its MIC is 50 µg/mL (≈ 24.7 µM).

What about the MIC (E. coli MG 1655) of the same molecule?
The MIC was 50 µg/mL (≈ 24.7 µM).

And the MIC (P. aeruginosa ATCC 27853)?
Its MIC is greater than 100 µg/mL.

And the MIC [1]?
Its MIC is 25 µg/mL (≈ 12.3 µM).

From paper PMC4440778, “Structure-Activity Relationship and Mode of Action of a Frog Secreted Antibacterial Peptide B1CTcu5 Using Synthetically and Modularly Modified or Deleted (SMMD) Peptides” (PLoS ONE, 2015)
